Data on 22 compounds can be found in publication PMC3915196, “Asymmetric Synthesis of Spirocyclic 2-Benzopyrans for Positron Emission Tomography of σ1 Receptors in the Brain” (Pharmaceuticals, 2014).

The term melting point denotes the temperature, or range, at which the solid turns liquid. By Ki is commonly meant a measure of affinity in units of concentration, obtained from inhibition or displacement. By inhibition is commonly meant the change of the read-out against control, counted positive when it falls.

Series [1] concerns the target T1, σ1 receptor (Cavia porcellus, UniProt Q60492).
T1 construct: five guinea pig brains were homogenized with the Potter; tissue Harlan-Winkelmann, Borchen, Germany; host or cells: guinea pig brain (cortex) membrane homogenate
In words: σ1 receptor binding assay with [3H]-(+)-pentazocine. On the set-up: species or system guinea pig.

In the next series the target is T2, σ2 receptor (Rattus norvegicus, UniProt Q5U3Y7).
T2 construct: two rat livers were cut into small pieces and homogenized with the Potter; tissue Harlan-Winkelmann, Borchen, Germany; host or cells: rat liver membrane homogenate
T2 sequence (Q5U3Y7 1-176): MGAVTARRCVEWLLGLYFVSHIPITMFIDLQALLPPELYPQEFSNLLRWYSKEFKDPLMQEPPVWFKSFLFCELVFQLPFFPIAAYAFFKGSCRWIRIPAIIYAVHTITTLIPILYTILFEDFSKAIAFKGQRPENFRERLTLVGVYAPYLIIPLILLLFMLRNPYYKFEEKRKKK
In words: σ2 receptor binding assay with [3H]DTG, σ1 sites masked with (+)-pentazocine. To be noted: for inhibition at 1 µM: read-out: Inhibition of radioligand binding (σ2).

For series [2] the following is noted: HPLC calibration; cited from earlier work.
For series [3] the following is noted: cited from earlier work.
The target of series [4] is T3, σ1 receptors in the brain (Mus musculus, UniProt O55242).
T3 construct: tissue Medizinisch-Experimentelles Zentrum, Universität Leipzig; host or cells: brain of female CD1 mice (in vivo / ex vivo autoradiography)
T3 sequence (O55242 whole entry): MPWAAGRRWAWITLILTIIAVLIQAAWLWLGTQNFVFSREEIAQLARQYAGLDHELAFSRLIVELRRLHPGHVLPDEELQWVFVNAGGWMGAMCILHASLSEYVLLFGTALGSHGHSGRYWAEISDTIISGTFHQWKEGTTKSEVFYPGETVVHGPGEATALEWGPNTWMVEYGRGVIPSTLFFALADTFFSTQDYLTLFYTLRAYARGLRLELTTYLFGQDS
On the set-up: method as in PMID 21072511. To be noted: 30 min after injection, 18F-labeled tracer; cited from earlier work.

The target in series [5] is T1, σ1 receptor. To be noted: earlier 2-benzofuran tracers, quoted for comparison, no reference printed at the values; cited from earlier work.
For series [6] the following is noted: phosphate buffer, Dulbecco buffer and native mouse plasma over 30 min at 37 °C.
Method: For pharmacological characterization of the radiotracer [^18F]-(R)-20, chemical stability was investigated in vitro in different buffer systems over 2 h at 40 °C: 50 mM phosphate buffer (pH 7.2), phosphate-saline-solution (Dulbecco; pH 7.2) and 0.01 M TRIS-HCl (pH 7.4).
For series [7] the following is noted: female, CD1, mouse, in vivo.
Series [8] deals with T3, σ1 receptors in the brain. In words: Brain uptake and ex vivo autoradiography under control and haloperidol blocking conditions. Format: in vivo. How it is done:
The experimental protocols were approved by the local ethics committee and conducted according to the national and EU regulations for animal research. Female CD1 mice (10–12 weeks old, 33.8 ± 6.2 g) were obtained from the Medizinisch-Experimentelles Zentrum, Universität Leipzig and housed under a 12 h/12 h light/dark cycle with free access to food and water for at least 24 h before experiments. Animals were sacrificed by CO2 asphyxiation after anaesthesia with O2/CO2 mixture.
The tracer distribution in the brain under control and blocking conditions was determined by ex vivo autoradiography studies. […] Animals were sacrificed at 30 min p.i. Blood was collected by heart puncture, the brain quickly removed and transferred on ice, and all samples were weighed. Radioactivity in brain and plasma samples was counted using an automated γ-counter and expressed as percentage of injected dose per gram (%ID/g). For autoradiography, the brain hemispheres were frozen immediately after isolation in 2-methylbutane (Carl Roth, Karlsruhe, Germany) at −30 °C (>2 min). Serial sagittal slices of 12 µm thickness were cut on a cryostat (Microm, Walldorf, Germany) from approx. midline, +500 µm, +1,000 µm and +1,500 µm. Slices were exposed overnight on an imaging plate (SR 2025, Fuji, Tokyo, Japan), scanned afterwards with a high-resolution phosphorimager (HD-CR 35 Bio, raytest). 2D densitometry of the whole brain was performed with AIDA software (raytest).

[9] abbreviates: at a concentration of 1 µM, rat liver membranes, [3H]DTG.
[10] abbreviates: rat liver membranes, [3H]DTG, read-out: Ki ± SEM σ2.
[11] abbreviates: established PET tracers, quoted for comparison, no reference given.

Read-outs that look alike come from different tables or passages of the source. Marks after values point to notes of the source that are not given here.

T1 sequence (Q60492 whole entry): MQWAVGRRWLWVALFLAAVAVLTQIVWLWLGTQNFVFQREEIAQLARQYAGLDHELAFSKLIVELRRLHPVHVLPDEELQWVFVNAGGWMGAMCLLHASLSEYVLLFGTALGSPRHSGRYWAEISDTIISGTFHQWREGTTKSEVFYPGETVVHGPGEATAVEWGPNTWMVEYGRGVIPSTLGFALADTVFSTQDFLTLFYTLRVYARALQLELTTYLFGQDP

Consider `O[C@@H]1COC2(CCN(Cc3ccccc3)CC2)c2ccccc21`, for which the melting point came out at 53 °C.
`OCCO[C@H]1COC2(CCN(Cc3ccccc3)CC2)c2ccccc21` [(R)-19, (R)-2-[(1′-Benzyl-3,4-dihydrospiro[[2]benzopyran-1,4′-piperidin]-4-yl)oxy]ethanol]: at σ1 receptor [1], the affinity, expressed as Ki, was 55 ± 1 nM and the “Selectivity σ1/σ2” value is listed as >15. In addition, the inhibition at 1 µM on σ2 receptor (setting [9]) worked out at 0%.
`O[C@H]1COC2(CCN(Cc3ccccc3)CC2)c2ccccc21`: the melting point stood at 55 °C.
As for `FCCO[C@@H]1COC2(CCN(Cc3ccccc3)CC2)c2ccccc21` [(S)-20, (S)-1′-Benzyl-4-(2-fluoroethoxy)-3,4-dohydrospiro[[2]benzopyran-1,4′-piperidine]], on σ1 receptor [1], the Ki is 5.9 ± 2.9 nM and the “Selectivity σ1/σ2” value was >170. The inhibition at 1 µM at σ2 receptor (setting [9]) turned out to be 10%.
As to `c1ccc2c(c1)-c1cccc3cccc-2c13` [fluoranthene], the “logD of reference compounds used for calibration” value (“logD of reference compounds used” for short) in [2] was 5.1.
Turning to `CO[C@H]1COC2(CCN(Cc3ccccc3)CC2)c2ccccc21` [(R)-15, (R)-1′-Benzyl-4-methoxy-3,4-dihydrospiro[[2]benzopyran-1,4′-piperidine]], at σ1 receptor [1], the Ki came to 1.2 ± 0.3 nM, the “Selectivity σ1/σ2” value turned out to be 958 and the “eudismic ratio (σ1 affinity)” value amounted to 7. Besides, the Ki at σ2 receptor (setting [10]) was 1150 nM.
As to `FCCC1OC2(CCN(Cc3ccccc3)CC2)c2ccccc21` (stereo not drawn) [[^18F]2b], in series [3] (mouse, in vivo), the “parent compound in liver samples” value is reported as 69% and the “unchanged parent compound in plasma” value was 89%. Also, the total-to-nonspecific binding ratio entry in [4] is recorded as “approx. 3”.
As for `CCO[C@@H]1COC2(CCN(Cc3ccccc3)CC2)c2ccccc21` [(S)-16, (S)-1′-Benzyl-4-ethoxy-3,4-dihydrospiro[[2]benzopyran-1,4′-piperidine]], at σ1 receptor [1], the Ki worked out at 4.2 ± 0.8 nM and the “Selectivity σ1/σ2” value is given as >235. Besides, the inhibition at 1 µM at σ2 receptor worked out at 31%.
For the compound `FCCCCC1OC2(CCN(Cc3ccccc3)CC2)c2ccccc21` (stereo not drawn) [Compound 2d], the total-to-nonspecific binding ratio result in [4] is reported as “approx. 3”.
Turning to “tert-Butyl (S)-4-hydroxy-3,4-dihydrospiro[[2]benzopyran-1,4′-piperidine]-1′-carboxylate [(S)-11]”, the “Selectivity σ1/σ2” value on σ1 receptor [1] was >55. Moreover, the Ki on σ1 receptor [1] (read-out: Ki ± SEM σ1) was 18 ± 5 nM. At σ2 receptor (1 µM), the “Inhibition of radioligand binding (σ2)” value was determined as 24% *.
As for `FCCC1OC2(CCN(Cc3ccccc3)CC2)c2ccccc21` (stereo not drawn) [fluspidine], the Ki on σ1 receptor [5] was 0.59 nM.
In the case of `c1ccc2ccccc2c1` [naphthalene], the “logD of reference compounds used” value in series [2] is 3.6.
With `CCOC(=O)CO[C@@H]1COC2(CCN(Cc3ccccc3)CC2)c2ccccc21` [(S)-18, Ethyl (S)-2-[(1′-benzyl-3,4-dihydro-3,4-dihydrospiro[2-benzopyran-1,4′-piperidin]-4-yl)oxy]acetate], at σ1 receptor [1], the affinity, expressed as Ki, was 114 nM and the “Selectivity σ1/σ2” value is >5. In addition, at σ2 receptor, the inhibition at 1 µM was 12%.
`CC(C)(C)OC(=O)N1CCC2(CC1)OC[C@H](O)c1ccccc12` [(R)-11, tert-Butyl (R)-4-hydroxy-3,4-dihydrospiro[[2]benzopyran-1,4′-piperidine]-1′-carboxylate] gave a melting point of 161 °C. Further, at σ1 receptor [1] (guinea pig brain membranes, [3H]-(+)-pentazocine, three independent experiments, read-out: Ki ± SEM σ1), the Ki turned out to be 5.2 ± 0.3 nM. For the same compound, the “Selectivity σ1/σ2” value at σ1 receptor [1] (ratio of σ2 and σ1 Ki values) worked out at 413. Besides, the Ki on σ2 receptor (setting [10]) worked out at 2150 nM.
For `CCOC(=O)CO[C@H]1COC2(CCN(Cc3ccccc3)CC2)c2ccccc21` [(R)-18, Ethyl (R)-2-[(1′-benzyl-3,4-dihydrospiro[[2]benzopyran-1,4′-piperidin]-4-yl)oxy]acetate], at σ1 receptor [1], the Ki stood at 4 ± 0.8 nM, the “Selectivity σ1/σ2” value was 138 and the “eudismic ratio (σ1 affinity)” value stood at 29. In addition, the Ki on σ2 receptor came to 552 nM.
Regarding `CCO[C@H]1COC2(CCN(Cc3ccccc3)CC2)c2ccccc21` [(R)-16, (R)-1′-Benzyl-4-ethoxy-3,4-dihydrospiro[[2]benzopyran-1,4′-piperidine]], the Ki worked out at 5 ± 1.2 nM on σ1 receptor [1] and 954 nM at σ2 receptor. On σ1 receptor [1], the “Selectivity σ1/σ2” value is on record as 191.
As to `[18F]CCO[C@H]1COC2(CCN(Cc3ccccc3)CC2)c2ccccc21` [[^18F]-(R)-20], in series [6], the defluorination entry is recorded as “No defluorination was observed”. On σ1 receptor [1], this compound gave a Ki of 4.7 nM. In addition, the “non-metabolized radiotracer of total radioactivity in urine” value in [7] (0.5 h) is 2-20%. Besides, in series [7] (30 min), the “unchanged parent radiotracer in liver” value was ~56%. Further, the “mean decrease of radiotracer uptake in slices of the whole brain hemisphere with haloperidol” value in series [8] (2D densitometry of ex vivo autoradiographs) is listed as “about 40%”. Also, the total-to-nonspecific binding ratio in [8] (mouse brain, 30 min p.i.) stood at 1.5. Besides, the “uptake of radioactivity in the brain” value in series [8] (mouse, 30 min p.i., blocking conditions, co-application of 1 mg/kg haloperidol) came to 2.24 % ID/g; in series [8] (mouse, 30 min p.i., control conditions), 3.4 % ID/g. Further, the “reduction of brain uptake by haloperidol co-application” value in series [8] (mouse, 30 min p.i., from %ID/g values) is reported as 34%.
As for `[18F]CCCC1OC2(CCN(Cc3ccccc3)CC2)c2ccccc21` (stereo not drawn) [[^18F]2c], in [3] (setting [11]), the “parent compound in liver samples” value is listed as 65% and the “unchanged parent compound in plasma” value is reported as 86%.
Consider `FCCO[C@H]1COC2(CCN(Cc3ccccc3)CC2)c2ccccc21` [(R)-20, (R)-1′-Benzyl-4-(2-fluoroethoxy)-3,4-dihydrospiro[[2]benzopyran-1,4′-piperidine]], for which, on σ1 receptor [1], the affinity, expressed as Ki, was 4.7 ± 0.7 nM and the “Selectivity σ1/σ2” value is listed as >210. In addition, the inhibition at 1 µM at σ2 receptor (setting [9]) was 14%.
Consider `Clc1ccccc1` [chlorobenzene], for which the “logD of reference compounds used” value in series [2] is recorded as 2.8.
For the compound `CO[C@@H]1COC2(CCN(Cc3ccccc3)CC2)c2ccccc21` [(S)-15, (S)-1′-Benzyl-4-methoxy-3,4-dihydrospiro[[2]benzopyran-1,4′-piperidine]], the results for the Ki at σ1 receptor [1] and at σ2 receptor (setting [10]) were 8.8 ± 1.1 nM and 676 nM, respectively. Also, the “Selectivity σ1/σ2” value on σ1 receptor [1] is reported as 77.
As to `OCCO[C@@H]1COC2(CCN(Cc3ccccc3)CC2)c2ccccc21` [(S)-19, (S)-2-[(1′-Benzyl-3,4-dihydrospiro[[2]benzopyran-1,4′-piperidin]-4-yl)oxy]ethanol], on σ1 receptor [1], affinity was put at a Ki of 64 ± 0.9 nM and the “Selectivity σ1/σ2” value is listed as >15. The inhibition at 1 µM on σ2 receptor (setting [9]) stood at 0%.
